Measurements as given in patent US20120040930A1, “TETRACYCLIC TERPENE SERIES COMPOUNDS, METHODS FOR PREPARING SAME, USES THEREOF AS MEDICINES AND PHARMACEUTICAL COMPOUNDS CONTAINING SAME” (priority 2005, published 2012).
Where two headings read alike, the source gives them in different places.

Assays:
[1] = molecular target: T1, acetylcholinesterase (AChE) isolated from Electrophorus electricus (Electrophorus electricus, UniProt O42275); test: biochemical
T1 construct: AChE isolated from Electrophorus electricus; from tissue

[2] = molecular target: T2, human serum butyrylcholinesterase (BChE) (Homo sapiens, UniProt P06276); test: biochemical
T2 construct: BChE isolated from human serum; from tissue; host or cells: human serum

[3] = human serum BChE, read-out: BChE
[4] = AChE isolated from Electrophorus electricus, read-out: AChE IC50

T2 sequence (P06276 29-602): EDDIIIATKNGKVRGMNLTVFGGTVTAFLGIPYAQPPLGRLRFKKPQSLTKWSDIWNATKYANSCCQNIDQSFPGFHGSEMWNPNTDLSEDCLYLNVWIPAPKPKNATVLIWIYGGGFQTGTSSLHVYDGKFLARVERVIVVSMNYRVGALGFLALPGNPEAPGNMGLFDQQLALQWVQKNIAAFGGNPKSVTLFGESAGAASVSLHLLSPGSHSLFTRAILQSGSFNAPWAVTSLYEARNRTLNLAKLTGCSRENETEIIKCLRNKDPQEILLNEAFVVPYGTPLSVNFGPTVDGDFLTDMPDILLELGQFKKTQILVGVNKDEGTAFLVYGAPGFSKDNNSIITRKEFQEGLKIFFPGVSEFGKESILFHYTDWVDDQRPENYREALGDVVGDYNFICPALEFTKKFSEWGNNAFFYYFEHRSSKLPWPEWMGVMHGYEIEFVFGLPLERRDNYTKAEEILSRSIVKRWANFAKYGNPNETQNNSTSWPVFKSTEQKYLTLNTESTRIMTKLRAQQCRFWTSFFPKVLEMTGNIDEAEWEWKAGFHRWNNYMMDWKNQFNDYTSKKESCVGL
T1 sequence (O42275 24-633): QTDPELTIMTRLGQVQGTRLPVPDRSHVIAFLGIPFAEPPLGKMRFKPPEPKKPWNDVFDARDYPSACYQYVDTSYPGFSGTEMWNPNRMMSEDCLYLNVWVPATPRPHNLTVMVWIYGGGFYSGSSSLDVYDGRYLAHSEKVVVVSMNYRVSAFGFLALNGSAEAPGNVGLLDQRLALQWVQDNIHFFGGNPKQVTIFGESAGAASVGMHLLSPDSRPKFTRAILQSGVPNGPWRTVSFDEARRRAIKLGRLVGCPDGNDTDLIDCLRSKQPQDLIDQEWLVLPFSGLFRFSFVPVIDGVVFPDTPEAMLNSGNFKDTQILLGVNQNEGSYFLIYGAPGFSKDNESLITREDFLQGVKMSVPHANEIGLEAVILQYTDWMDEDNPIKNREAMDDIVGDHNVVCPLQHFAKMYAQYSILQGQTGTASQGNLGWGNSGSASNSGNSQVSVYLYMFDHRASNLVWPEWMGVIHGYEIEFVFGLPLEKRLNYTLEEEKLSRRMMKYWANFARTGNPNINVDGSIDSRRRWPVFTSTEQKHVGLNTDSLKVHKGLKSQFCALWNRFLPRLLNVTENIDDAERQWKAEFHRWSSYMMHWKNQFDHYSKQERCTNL

| Structure (SMILES) | IC50 [1, 4] [µM] | also measured |
| --- | --- | --- |
| CC(C)C(=O)NC1CC[C@]23CC24C(=O)C[C@]2(C)[C@@H]([C@H](C)N(C)C)[C@H](O)C[C@@]2(C)[C@@H]4CC[C@H]3[C@]1(C)CO (stereo in doubt) [Compound 2, (20S)-3-isobutyrylamino-9,19-cyclo-4α-hydroxymethyl-4,14α-dimethyl-20-dimethylamino-5α,9-pregnan-16α-ol-11-one] |  | IC50 ([1]; AChE IC50): > 10 µM; IC50 [2, 3]: > 10 µM |
| CCC(C)C(=O)N[C@H]1CC=C2C[C@H]3C(=O)C[C@]4(C)[C@@H]([C@H](C)N(C)C)[C@H](O)C[C@@]4(C)[C@@H]3CC[C@H]2[C@]1(C)CO (stereo partly drawn) [Compound 7e, (20S)-10(9->1)abeo-4α-hydroxymethyl-4,14α-dimethyl-20-dimethylamino-3 (S-2-methylbutyrylamino)-5α,9-pregn-1(10)-en-16α-ol-11-one] |  | IC50 ([1]; AChE IC50): 0.105 µM; IC50 [2, 3]: > 10 µM |
| CC(=O)O[C@@H]1C[C@@]2(C)[C@@H]3CC[C@@H]4C5(CC[C@H](NC(=O)C(C)C)[C@@]4(C)CO)C[C@@]35C(=O)C[C@]2(C)[C@H]1[C@H](C)N(C)C (stereo partly drawn) [Compound 13, (20S)-16α-acetyl-3-isobutyrylamino-9,19-cyclo-4α-hydroxymethyl-4,14α-dimethyl-20-dimethylamino-5α,9-pregnan-11-one] | > 10 | IC50 [2, 3]: > 1 µM |
| CC(C)C1=NC2CC[C@H]3C=C4C(=O)C[C@]5(C)[C@@H]([C@H](C)N(C)C)[C@H](O)C[C@@]5(C)[C@@H]4CC[C@H]3[C@]2(C)CO1 (stereo partly drawn) [Compound 32, (20S)-9(10->19)abeo-4,14α-dimethyl-20-dimethylamino(2′-isopropyl-4′,4′-dihydro[3′,1′]oxazin)-5α,9-pregn-1(10)-en-16α-ol-11-one] | 0.112 | IC50 [2]: 1.44 µM |
| CC(C)C(=O)N[C@H]1CC=C2C[C@H]3C(=O)C[C@]4(C)[C@@H]([C@H](C)N(C)C)[C@H](O)C[C@@]4(C)[C@@H]3CC[C@H]2[C@]1(C)CO [Compound 3, (20S)-10(9->1)abeo-4α-hydroxymethyl-3-isobutyrylamino-4,14α-dimethyl-20-dimethylamino-5α,9-pregn-1(10)-en-16α-ol-11-one] |  | IC50 [2, 3]: 7.41 µM |
| CC(C)C(=O)N[C@H]1CCC23C[C@]24C(=O)C[C@]2(C)[C@@H]([C@H](C)N(C)C)[C@H](OC(=O)C(C)(C)C)C[C@@]2(C)[C@@H]4CC[C@H]3[C@]1(C)CNCc1ccccc1 (stereo partly drawn) [Compound 47, (20S)-3β-isobutyrylamino-20-dimethylamino-9,19-cyclo-4α-benzylaminomethyl-4β,14α-dimethyl-16α-pivalyl-5α,9β-pregnan-11-one] | 20.1 |  |
| C[C@@H]([C@H]1[C@H](O)C[C@@]2(C)[C@@H]3CC[C@@H]4C(=CC[C@@H]5N=C(Cc6ccccc6)OC[C@]54C)C[C@H]3C(=O)C[C@]12C)N(C)C [Compound 8g, (20S)-10(9->1)abeo-4,14α-dimethyl-20-dimethylamino-(2′-(1-benzyl)-4′,4′-dihydro[3′,1′]oxazine)-5α,9-pregn-1(10)-en-16α-ol-11-one] |  | IC50 [2, 3]: > 10 µM |
| CCC(C)C1=NC2CCC34C[C@]35C(=O)C[C@]3(C)[C@@H]([C@H](C)N(C)C)[C@H](O)C[C@@]3(C)[C@@H]5CC[C@H]4[C@]2(C)CN1 (stereo partly drawn) [Compound 64, (20S)-20-dimethylamino-9,19-cyclo-4β,14α-dimethyl-(2-(S)-sec-butyl-5β-methyl-1,4,5,6-tetrahydro-pyrimidin-5-yl)-5α,9β-pregnan-16α-ol-11-one] | 0.014 |  |
| CCC(CC)C1=N[C@H]2CC=C3C[C@H]4C(=O)C[C@]5(C)[C@@H]([C@H](C)N(C)C)[C@H](O)C[C@@]5(C)[C@@H]4CC[C@H]3[C@]2(C)CO1 [Compound 8i, (20S)-10(9->1)abeo-4,14α-dimethyl-20-dimethylamino(2′-(1-ethylpropyl)-4′,4′-dihydro[3′,1′]oxazin)-5α,9-pregn-1(10)-en-16α-ol-11-one] |  | IC50 [2, 3]: 0.38 µM |
| CC(C)C1=NC2CCC34C[C@]35C(=O)C[C@]3(C)[C@@H]([C@H](C)N(C)C)[C@H](O)C[C@@]3(C)[C@@H]5CC[C@H]4[C@]2(C)CN1 (stereo partly drawn) [Compound 51, (20S)-20-dimethylamino-9,19-cyclo-4β,14α-dimethyl-(2-isopropyl-5β-methyl-1,4,5,6-tetrahydro-pyrimidin-5-yl)-5α,9β-pregnan-16α-ol-11-one] |  | IC50 ([1]; AChE IC50): 0.018 µM |
| CC[C@H](C)C(=O)N[C@H]1CCC23C[C@]24C(=O)C[C@]2(C)[C@@H]([C@H](C)N(C)C)[C@H](O)C[C@@]2(C)[C@@H]4CC[C@H]3[C@]1(C)/C=N/Cc1ccccc1 (stereo partly drawn) [Compound 61, (20S)-20-dimethylamino-3β-((S)-2-methylbutyrylamino)-9,19-cyclo-4α-benzyliminomethyl-4β,14α-dimethyl-5α,9β-pregnan-16α-ol-11-one] | > 100 |  |
| CC(C)C(=O)NC1CCC23C[C@]24C(=O)C[C@]2(C)[C@@H]([C@H](C)N(C)C)[C@H](OC(=O)C(C)(C)C)C[C@@]2(C)[C@@H]4CC[C@H]3[C@]1(C)CN (stereo partly drawn) [Compound 50, (20S)-3β-isobutyrylamino-20-dimethylamino-9,19-cyclo-4α-aminomethyl-4β,14α-dimethyl-16α-pivalyl-5α,9β-pregnan-11-one] | 1.33 |  |
| CN[C@@H](C)[C@H]1[C@H](O)C[C@@]2(C)[C@@H]3CC[C@@H]4C(=CCC5N=C(C(C)C)OC[C@]54C)C[C@H]3C(=O)C[C@]12C (stereo partly drawn) [Compound 33, (20S)-10(9->1)abeo-20-methylamino-4β,14α-dimethyl-(2′-isopropyl-3,29-dihydro-4H-[1,3]-oxazine)-5α,9β-pregn-1(10)-en-16α-ol-11-one] | 0.106 |  |
| CC[C@H](C)C(=O)N[C@H]1CC=C2C[C@H]3C(=O)C[C@]4(C)[C@@H]([C@H](C)N(C)C)[C@H](O)C[C@@]4(C)[C@@H]3CC[C@H]2[C@]1(C)C=O [Compound 67, (20S)-10(9->1)-abeo-20-dimethylamino-3-((S)-2-methylbutyrylamino)-4α-formyl-4β,14α-dimethyl-5α,9β-pregn-1(10)-en-16α-ol-11-one] | > 100 |  |
| CC(C)C(=O)N[C@H]1CCC23C[C@]24C(=O)C[C@]2(C)[C@@H]([C@H](C)N(C)C)[C@H](O)C[C@@]2(C)[C@@H]4CC[C@H]3[C@]1(C)CN (stereo partly drawn) [Compound 49, (20S)-20-dimethylamino-3β-(isobutyrylamino)-9,19-cyclo-4α-aminomethyl-4β,14α-dimethyl-5α,9β-pregnan-16α-ol-11-one] |  | IC50 ([1]; AChE IC50): 1.34 µM |
| CN[C@@H](C)[C@H]1[C@H](OC(=O)C(C)(C)C)C[C@@]2(C)[C@@H]3CC[C@@H]4C5(CC[C@H](NC(=O)C(C)C)[C@@]4(C)C=O)C[C@@]35C(=O)C[C@]12C (stereo partly drawn) [Compound 43, (20S)-3β-isobutyrylamino-20-methylamino-9,19-cyclo-4β,14α-dimethyl-4α-formyl-16α-pivalyl-5α,9β-pregnan-11-one] | > 100 |  |
| CC(=O)O[C@@H]1C[C@@]2(C)[C@@H]3CC[C@@H]4C(=CC[C@@H]5N=C(C(C)C)OC[C@]54C)C[C@H]3C(=O)C[C@]2(C)[C@H]1[C@H](C)N(C)C [Compound 40] |  | IC50 ([1]; AChE IC50): 0.112 µM |
| CC(C)C(=O)N[C@H]1CCC23C[C@@]24[C@@H](CC[C@H]3[C@]1(C)CO)[C@]1(C)C[C@@H](O)[C@H]([C@H](C)N(C)C)[C@@]1(C)C[C@@H]4O (stereo partly drawn) [Compound 34, (20S)-20-dimethylamino-3β-(isobutyrylamino)-9,19-cyclo-4α-hydroxymethyl-4β,14α-dimethyl-5α,9β-pregnan-11β,16α-diol-11-one] | > 100 |  |
| CC[C@H](C)C(=O)N[C@H]1CCC23C[C@]24C(=O)C[C@]2(C)[C@@H]([C@H](C)N(C)C)[C@H](O)C[C@@]2(C)[C@@H]4CC[C@H]3[C@]1(C)C=O (stereo partly drawn) [Compound 60, (20S)-20-dimethylamino-3β-((S)-2-methylbutyrylamino)-9,19-cyclo-4α-formyl-4β,14α-dimethyl-5α,9β-pregnan-16α-ol-11-one] | > 100 |  |
| CC(C)C(=O)N[C@H]1CCC23C[C@]24C(=O)C[C@]2(C)[C@@H]([C@H](C)N(C)C)[C@H](OC(=O)C(C)(C)C)C[C@@]2(C)[C@@H]4CC[C@H]3[C@]1(C)CNC([Si](C)(C)C)[Si](C)(C)C (stereo partly drawn) [Compound 56, (20S)-3β-isobutyrylamino-20-dimethylamino-9,19-cyclo-4β,14α-dimethyl-4α-(bis-(trimethylsilanyl)methylamino)methyl-16α-pivalyl-5α,9β-pregnan-11-one] | > 100 |  |
| CC(=O)OC[C@]1(C)[C@@H](NC(=O)C(C)C)CCC23C[C@]24C(=O)C[C@]2(C)[C@@H]([C@H](C)N(C)C)[C@H](O)C[C@@]2(C)[C@@H]4CC[C@H]31 (stereo partly drawn) [Compound 41, (20S)-3β-isobutyrylamino-20-dimethylamino-9,19-cyclo-4β,14α-dimethyl-4α-acetylmethyl-5α,9β-pregnan-16α-ol-11-one] | > 100 |  |
| CC(C)C(=O)N[C@H]1CCC23C[C@]24C(=O)C[C@]2(C)[C@@H]([C@H](C)N(C)C)[C@H](OS(C)(=O)=O)C[C@@]2(C)[C@@H]4CC[C@H]3[C@]1(C)CO (stereo partly drawn) [Compound 37, (20S)-3β-isobutyrylamino-20-dimethylamino-9,19-cyclo-4β,14α-dimethyl-4α-hydroxymethyl-16α-mesyl-5α,9β-pregnan-11-one] | ≥ 100 |  |
| CC(C)C1=NC2CCC34C[C@]35C(=O)C[C@]3(C)[C@@H]([C@H](C)N(C)C)[C@H](OC(=O)C(C)(C)C)C[C@@]3(C)[C@@H]5CC[C@H]4[C@]2(C)CN1 (stereo partly drawn) [Compound 52, (20S)-20-dimethylamino-9,19-cyclo-4β,14α-dimethyl-16α-pivalyl-(2′-isopropyl-1′/3′,3,29-tetrahydropyrimidine)-5α,9β-pregnan-11-one] | 0.029 |  |
| CC(C)C(=O)N[C@H]1CCC23C[C@]24C(=O)C[C@]2(C)[C@@H]([C@H](C)N(C)C)[C@H](O)C[C@@]2(C)[C@@H]4CC[C@H]3[C@]1(C)C=O (stereo partly drawn) [Compound 44, (20S)-3β-isobutyrylamino-20-dimethylamino-9,19-cyclo-4β,14α-dimethyl-4α-formyl-5α,9β-pregnan-16α-ol-11-one] | > 100 |  |
